Active and inactive are the calls of the source.
Columns and labels:
[1] = HEp-2 cell cytotoxicity, dose response, cytotoxicity control for RSV inhibitor project, HTS (AID 2410); type: functional; details: human respiratory syncytial virus
[2] = molecular target: T1, Short transient receptor potential channel 4 (Mus musculus, UniProt Q9QUQ5); experiment: mouse TRPC4 channel inhibitors, dose response, cell-based, HEK293 TRPC4/mu-opioid, Fluo-4 calcium (AID 434942); type: functional;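 further: potency of inhibitors blocking the TRPC4 calcium response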
T1 sequence (Q9QUQ5 whole entry): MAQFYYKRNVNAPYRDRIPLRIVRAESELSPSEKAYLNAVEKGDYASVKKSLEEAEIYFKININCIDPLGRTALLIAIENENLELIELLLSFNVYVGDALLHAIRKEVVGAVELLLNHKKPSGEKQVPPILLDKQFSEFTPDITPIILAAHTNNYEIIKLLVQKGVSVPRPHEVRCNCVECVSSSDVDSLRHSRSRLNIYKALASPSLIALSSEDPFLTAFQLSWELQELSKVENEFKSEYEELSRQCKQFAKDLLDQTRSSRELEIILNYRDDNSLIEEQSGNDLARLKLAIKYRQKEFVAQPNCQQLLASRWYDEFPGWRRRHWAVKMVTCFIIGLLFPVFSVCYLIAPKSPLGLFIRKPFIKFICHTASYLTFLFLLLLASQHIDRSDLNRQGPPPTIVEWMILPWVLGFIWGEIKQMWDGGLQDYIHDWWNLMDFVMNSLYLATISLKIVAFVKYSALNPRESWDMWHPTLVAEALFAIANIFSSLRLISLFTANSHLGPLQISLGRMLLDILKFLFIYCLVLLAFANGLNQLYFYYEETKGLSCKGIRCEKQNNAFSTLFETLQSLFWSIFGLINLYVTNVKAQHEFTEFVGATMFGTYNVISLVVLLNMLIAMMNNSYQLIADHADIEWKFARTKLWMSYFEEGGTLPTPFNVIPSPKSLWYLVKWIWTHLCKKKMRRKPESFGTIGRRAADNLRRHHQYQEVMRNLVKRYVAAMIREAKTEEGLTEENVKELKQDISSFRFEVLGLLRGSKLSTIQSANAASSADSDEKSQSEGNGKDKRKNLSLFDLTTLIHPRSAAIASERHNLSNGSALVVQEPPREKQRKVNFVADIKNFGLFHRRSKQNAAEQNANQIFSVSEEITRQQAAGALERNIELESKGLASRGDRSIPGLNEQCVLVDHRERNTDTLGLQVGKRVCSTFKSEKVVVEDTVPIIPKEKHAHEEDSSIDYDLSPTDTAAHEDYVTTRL

[3] = molecular target: DNA dC->dU-editing enzyme APOBEC-3G (Homo sapiens, UniProt Q9HC16); experiment: Dose Response confirmation of small molecule APOBEC3G DNA Deaminase Inhibitors via a fluorescence-based single-stranded DNA deaminase assay. [Related pubchem assays (depositor defined):AID493012, AID493028]; type: functional
Chain of DNA dC->dU-editing enzyme APOBEC-3G (Q9HC16 whole entry): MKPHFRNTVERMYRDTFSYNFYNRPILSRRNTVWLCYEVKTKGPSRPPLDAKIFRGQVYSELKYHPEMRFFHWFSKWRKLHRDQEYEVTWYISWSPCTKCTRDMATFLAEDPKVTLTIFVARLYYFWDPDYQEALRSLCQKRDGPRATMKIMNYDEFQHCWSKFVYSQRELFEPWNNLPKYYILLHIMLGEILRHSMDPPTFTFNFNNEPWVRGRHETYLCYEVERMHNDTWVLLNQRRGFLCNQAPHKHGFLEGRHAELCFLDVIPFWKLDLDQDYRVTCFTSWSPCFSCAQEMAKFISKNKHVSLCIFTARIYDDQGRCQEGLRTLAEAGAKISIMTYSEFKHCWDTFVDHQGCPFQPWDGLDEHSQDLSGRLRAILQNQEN

[4] = molecular target: DNA dC->dU-editing enzyme APOBEC-3A (Homo sapiens, UniProt P31941); experiment: APOBEC3A DNA deaminase inhibitors, dose response, biochemical (AID 504722); type: functional
Chain of DNA dC->dU-editing enzyme APOBEC-3A (P31941 whole entry): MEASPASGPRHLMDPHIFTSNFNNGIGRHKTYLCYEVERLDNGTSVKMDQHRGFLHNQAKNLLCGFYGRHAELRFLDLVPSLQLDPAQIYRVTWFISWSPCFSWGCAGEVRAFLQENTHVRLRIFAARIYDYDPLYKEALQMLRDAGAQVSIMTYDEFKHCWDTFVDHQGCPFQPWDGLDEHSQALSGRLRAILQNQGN

SUMO-activating enzyme = SUMO-activating enzyme (Homo sapiens, UniProt Q9UBT2); experiment: SUMOylation inhibitor hit validation, confirmation, SUMOylation inhibitor project, biochemical, AlphaScreen (AID 2018); type: functional
Chain of SUMO-activating enzyme (Q9UBE0 whole entry): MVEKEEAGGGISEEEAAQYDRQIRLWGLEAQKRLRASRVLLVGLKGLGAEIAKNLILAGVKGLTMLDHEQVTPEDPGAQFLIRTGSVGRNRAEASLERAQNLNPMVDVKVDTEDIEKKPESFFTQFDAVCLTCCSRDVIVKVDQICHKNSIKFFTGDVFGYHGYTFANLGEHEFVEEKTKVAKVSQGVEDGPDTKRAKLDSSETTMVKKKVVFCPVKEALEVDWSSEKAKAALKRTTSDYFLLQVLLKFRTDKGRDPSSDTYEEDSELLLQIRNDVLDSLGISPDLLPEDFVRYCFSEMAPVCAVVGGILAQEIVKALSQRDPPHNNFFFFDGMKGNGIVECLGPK
Chain of SUMO-activating enzyme (Q9UBT2 whole entry): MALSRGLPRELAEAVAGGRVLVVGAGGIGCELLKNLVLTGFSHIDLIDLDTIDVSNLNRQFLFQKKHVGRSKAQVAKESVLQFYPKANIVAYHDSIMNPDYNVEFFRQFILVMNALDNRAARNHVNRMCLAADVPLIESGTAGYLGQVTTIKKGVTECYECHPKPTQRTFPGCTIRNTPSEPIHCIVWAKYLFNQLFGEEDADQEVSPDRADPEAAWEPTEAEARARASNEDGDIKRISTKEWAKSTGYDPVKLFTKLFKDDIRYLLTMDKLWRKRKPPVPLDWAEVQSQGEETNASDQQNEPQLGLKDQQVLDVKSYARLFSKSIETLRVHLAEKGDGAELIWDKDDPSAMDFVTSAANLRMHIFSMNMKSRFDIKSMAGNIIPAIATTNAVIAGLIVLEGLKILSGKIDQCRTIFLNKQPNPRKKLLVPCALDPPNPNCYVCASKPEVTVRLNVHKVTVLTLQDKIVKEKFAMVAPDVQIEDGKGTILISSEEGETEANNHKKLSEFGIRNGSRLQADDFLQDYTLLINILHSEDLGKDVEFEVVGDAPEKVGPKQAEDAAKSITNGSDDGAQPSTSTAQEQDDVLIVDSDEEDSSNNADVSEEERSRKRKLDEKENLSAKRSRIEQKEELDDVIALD

Vero [5] = experiment: cells; type: functional, cell-based; details: Chlorocebus sabaeus
Vero [6] = experiment: cells; type: functional; details: Chlorocebus sabaeus
[7] = Vero E6 cell cytotoxicity, dose response, cytotoxicity control for non-replicating M. tuberculosis project, secondary assay (AID 492998); type: functional, VeroE6; details: Vero C1008
Streptokinase A = molecular target: T2, Streptokinase A (Streptococcus pyogenes serotype M1, UniProt P10520); experiment: S. pyogenes streptokinase expression inhibitors, potency, dose response, plasminogen activation absorbance, OD405 (AID 1914); type: functional, Streptococcus pyogenes M1 GAS;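 further: secreted streptokinase activity via plasminogen activation per viability signal from cell pellet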
T2 sequence (P10520 whole entry): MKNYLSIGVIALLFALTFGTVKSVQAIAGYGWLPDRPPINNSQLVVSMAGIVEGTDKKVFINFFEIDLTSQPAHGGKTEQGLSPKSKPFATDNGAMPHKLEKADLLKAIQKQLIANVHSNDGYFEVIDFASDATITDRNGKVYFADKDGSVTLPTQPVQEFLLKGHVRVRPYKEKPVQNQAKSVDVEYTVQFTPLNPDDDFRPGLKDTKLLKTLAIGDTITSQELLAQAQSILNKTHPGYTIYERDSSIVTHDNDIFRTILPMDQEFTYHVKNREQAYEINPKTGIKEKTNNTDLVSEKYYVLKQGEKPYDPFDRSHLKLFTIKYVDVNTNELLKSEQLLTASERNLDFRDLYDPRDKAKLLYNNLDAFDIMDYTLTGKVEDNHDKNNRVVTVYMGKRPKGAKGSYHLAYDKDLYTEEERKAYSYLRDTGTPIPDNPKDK

cells = type: functional
Streptococcus = experiment: Group A Streptococcus viability loss, dose response, counter-screen for streptokinase expression inhibitor project, luminescence, BacTiterGlo (AID 1915); type: functional, organism-based;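 further: potency for reduction of bacterial viability or growth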
[8] = THP-1 cell cytotoxicity, dose response, cytotoxicity control for non-replicating M. tuberculosis project (AID 489025); type: functional
[9] = tested on: Streptococcus sp. 'group A'; experiment: growth inhibition of control SK(-) GAS strain, dose response, counter-screen for streptokinase expression inhibitor project, luminescence, kanamycin, BacTiterGlo, confirmation (AID 1900); type: functional, organism-based
[10] = cytotoxicity in HEK-293T cells, dose response, cytotoxicity control for TCR NF-kB inhibitor project, luminescence, T-cell screen hits (AID 489026); type: functional, cell-based;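 further: cells exposed to compound about 14 hours before the viability readout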
[11] = molecular target: T3, Ubiquitin-conjugating enzyme E2 N (Homo sapiens, UniProt P61088); type: functional;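 further: Dose-response confirmation in a TR-FRET assay detecting UBC13-driven polyubiquitin chain formation, inhibition measured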
T3 sequence (P61088 whole entry): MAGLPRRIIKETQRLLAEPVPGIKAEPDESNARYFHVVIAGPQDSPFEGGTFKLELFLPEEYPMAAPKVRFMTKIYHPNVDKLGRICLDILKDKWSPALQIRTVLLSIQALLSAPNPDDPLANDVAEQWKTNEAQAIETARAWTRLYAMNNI

[12] = molecular target: T4, DNA repair and recombination protein RAD54-like (Homo sapiens, UniProt Q92698); experiment: inhibitors of human RAD54 branch migration, confirmation, biochemical, fluorescence, cherry-picked samples, dose series (AID 651657); type: functional
T4 sequence (Q92698 whole entry): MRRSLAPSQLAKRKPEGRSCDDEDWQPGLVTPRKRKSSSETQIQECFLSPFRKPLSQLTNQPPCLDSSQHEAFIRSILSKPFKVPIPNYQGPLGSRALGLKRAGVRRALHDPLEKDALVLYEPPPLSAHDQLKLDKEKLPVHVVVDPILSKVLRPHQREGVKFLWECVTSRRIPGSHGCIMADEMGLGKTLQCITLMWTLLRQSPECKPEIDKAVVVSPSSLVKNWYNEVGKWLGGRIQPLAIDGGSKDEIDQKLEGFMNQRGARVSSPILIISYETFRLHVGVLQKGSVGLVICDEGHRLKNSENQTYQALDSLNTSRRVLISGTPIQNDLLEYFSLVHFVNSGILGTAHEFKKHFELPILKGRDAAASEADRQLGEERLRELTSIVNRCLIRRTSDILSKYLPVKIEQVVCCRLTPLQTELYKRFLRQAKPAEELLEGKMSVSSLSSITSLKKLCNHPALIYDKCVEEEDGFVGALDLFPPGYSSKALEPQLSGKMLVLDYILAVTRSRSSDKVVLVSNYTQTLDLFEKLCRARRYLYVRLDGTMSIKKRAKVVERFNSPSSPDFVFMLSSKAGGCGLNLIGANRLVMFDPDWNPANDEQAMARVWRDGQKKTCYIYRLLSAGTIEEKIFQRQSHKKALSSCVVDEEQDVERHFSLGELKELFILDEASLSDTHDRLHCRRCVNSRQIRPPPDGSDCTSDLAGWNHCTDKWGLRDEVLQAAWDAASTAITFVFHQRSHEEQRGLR

[13] = molecular target: T5, DNA repair protein RAD52 homolog (Homo sapiens, UniProt P43351); type: functional, biochemical
T5 sequence (P43351 whole entry): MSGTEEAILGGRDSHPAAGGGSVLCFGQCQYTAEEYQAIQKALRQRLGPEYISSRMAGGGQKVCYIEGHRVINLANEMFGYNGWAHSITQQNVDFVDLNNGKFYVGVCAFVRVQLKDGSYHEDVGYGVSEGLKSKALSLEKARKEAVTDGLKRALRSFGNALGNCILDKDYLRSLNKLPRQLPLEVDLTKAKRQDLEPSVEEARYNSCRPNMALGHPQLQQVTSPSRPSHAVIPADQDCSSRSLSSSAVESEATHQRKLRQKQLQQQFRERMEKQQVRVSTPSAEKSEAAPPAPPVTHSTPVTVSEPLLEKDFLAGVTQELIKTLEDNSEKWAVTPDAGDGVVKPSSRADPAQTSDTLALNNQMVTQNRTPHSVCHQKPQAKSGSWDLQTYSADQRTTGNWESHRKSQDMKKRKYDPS

[14] = intracellular Trypanosoma cruzi inhibitors in host cells – cell-based, plate reader, cherry-pick samples, set 3, dose response (AID 651818); type: functional;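 further: compounds incubated with infected cells for about four days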
[15] = molecular target: T6, Rac GTPase-activating protein 1 (Homo sapiens, UniProt Q9H0H5); experiment: MgcRacGAP GTPase-activating activity inhibitors, confirmation, biochemical, ADP Hunter fluorescence, primary and confirmatory (AID 624330); type: functional
T6 sequence (Q9H0H5 whole entry): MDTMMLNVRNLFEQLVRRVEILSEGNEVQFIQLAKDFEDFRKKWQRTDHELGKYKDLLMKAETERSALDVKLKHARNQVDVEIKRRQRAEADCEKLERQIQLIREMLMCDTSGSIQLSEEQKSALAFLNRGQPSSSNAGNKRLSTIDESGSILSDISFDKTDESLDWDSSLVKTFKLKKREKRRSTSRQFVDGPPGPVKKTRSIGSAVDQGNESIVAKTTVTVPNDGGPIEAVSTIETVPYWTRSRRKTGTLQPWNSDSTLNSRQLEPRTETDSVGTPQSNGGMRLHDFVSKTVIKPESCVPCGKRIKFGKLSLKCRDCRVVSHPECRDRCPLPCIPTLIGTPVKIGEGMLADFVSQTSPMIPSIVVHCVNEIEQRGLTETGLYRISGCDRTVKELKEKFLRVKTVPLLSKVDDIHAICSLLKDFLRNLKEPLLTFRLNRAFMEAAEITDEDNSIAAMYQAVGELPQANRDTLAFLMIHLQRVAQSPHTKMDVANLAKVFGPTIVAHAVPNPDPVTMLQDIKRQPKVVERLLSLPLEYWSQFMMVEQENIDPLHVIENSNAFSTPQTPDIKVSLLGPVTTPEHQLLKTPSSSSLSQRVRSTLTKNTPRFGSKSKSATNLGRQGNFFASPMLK

Clc1cccc(COn2c(-c3ccc(Cl)cc3Cl)nc3ncccc32)c1
CC50 [1]: 14.4 µM (active)
EC50 [2]: 5.96 µM (active)

Cc1cc(-c2nnc(S)n2-c2ccc(F)cc2)nn1C
IC50 [3]: 16.2 µM (active)
IC50 [4]: > 100 µM (inactive)

CCOc1cccc(CNCCO)c1OCc1ccc(Cl)cc1
EC50 [2]: 1.88 µM (active)

Nc1c(C(=O)Nc2ccc(Br)cc2)sc2nc(-c3ccco3)ccc12
IC50 (SUMO-activating enzyme): 22.8 µM (active)

COC(=O)C1=C(C)N(Cc2ccccc2)C(=S)N[C@H]1c1ccccc1
EC50 [2]: 5.96 µM (active)

O=c1c2ccccc2nc(/C=C/c2ccccc2O)n1-c1ccccc1O
CC50 [1]: 8.96 µM (active)
IC50 (Vero [5]): > 25 µM (active)
CC50 (Vero [6]): 20.4 µM (active)

Cc1ccc(CNC(=O)c2ccc([N+](=O)[O-])o2)cc1
CC50 [7]: 5.6 µM (active)
EC50 (Streptokinase A): 8.63 µM (active)
IC50 (cells): 0.16 µM (active)
EC50 (Streptococcus): 32.1 µM (active)
CC50 [8]: 25.5 µM (active)
EC50 [9]: 2.42 µM (active)

CCOc1ccc(S(=O)(=O)NCc2ccccn2)cc1NC(=O)c1ccccc1
IC50 [10]: > 80 µM (inactive)

CCOC(=O)c1ccccc1NS(=O)(=O)c1ccc(OCC)cc1
IC50 [10]: > 80 µM (inactive)

CCCCN(CC)CCNC(=O)c1cc2c(=O)n(C)c3ccccc3c2n1C
IC50 [11]: > 20 µM (inactive)
AC50 [12]: 32.3 µM (active)

N=c1c(C(=O)NCCN2CCOCC2)cc2c(=O)n3ccccc3nc2n1CCCN1CCOCC1
AC50 [13]: 5.36 µM (active)
AC50 [12]: 11.5 µM (active)

CC(NC(=O)OC(C)(C)C)C(=O)Oc1ccc2ccc(=O)oc2c1 (configuration not stated)
IC50 (SUMO-activating enzyme): > 100 µM (inactive)

C=CCn1c(-c2ccc([N+](=O)[O-])cc2)n[nH]c1=S
IC50 [3]: 4.51 µM (active)
IC50 [4]: > 100 µM (inactive)

CC(OC(=O)CNC(=O)c1ccccc1F)C(=O)Nc1nc(-c2ccccc2)cs1 (configuration not stated)
EC50 [2]: 1.5 µM (active)

CC(=O)/C(C#N)=C1\NC(=O)C(Cc2ccc(C)c(Cl)c2)S1 (configuration not stated)
IC50 (Vero [5]): 6.72 µM (active)
CC50 (Vero [6]): 20.6 µM (active)

C[C@H](CO)N1C[C@H](C)[C@@H](CN(C)S(=O)(=O)c2ccc(Cl)cc2)Oc2c(NC(=O)Nc3ccccc3)cccc2C1=O
AC50 [14]: 6.84 µM (active)

C[C@@H]1CN([C@@H](C)CO)C(=O)c2cccc(NC(=O)Nc3ccc(C(F)(F)F)cc3)c2O[C@H]1CN(C)S(=O)(=O)c1cccs1
AC50 [14]: 4.64 µM (active)

C[C@@H]1CCCCO[C@@H](CN(C)CC2CCCCC2)[C@@H](C)CN([C@H](C)CO)C(=O)c2cc(NC(=O)Nc3cccc4ccccc34)ccc2O1
AC50 [14]: 0.757 µM (active)

Cc1ccc(S(=O)(=O)Nc2ccc3c(c2)CC(=O)N([C@H](C)CO)C[C@@H](C)[C@H](CN(C)Cc2ccccc2)O3)cc1
AC50 [14]: 1.79 µM (active)

Cc1cc(-c2nnc(S)n2/N=C/c2sccc2C)[nH]n1
IC50 [3]: 2.44 µM (active)
IC50 [15]: 74.9 µM (active)
IC50 [4]: > 100 µM (inactive)

Sc1nnc(COc2ccccc2)n1/N=C/c1ccco1
IC50 [3]: 3.38 µM (active)
IC50 [4]: > 100 µM (inactive)

— ChEMBL document CHEMBL1201862, “PubChem BioAssay data set” (2004)
